Reference: patent US20260184687A1, “DIHYDROINDENE DERIVATIVES AS MALT1 INHIBITORS” (C4X Discovery Limited, priority 2022, published 2026)

Molecular target: T1, FL hMALT1 enzyme (Homo sapiens, UniProt Q9UDY8)
T1 sequence (Q9UDY8 1-824): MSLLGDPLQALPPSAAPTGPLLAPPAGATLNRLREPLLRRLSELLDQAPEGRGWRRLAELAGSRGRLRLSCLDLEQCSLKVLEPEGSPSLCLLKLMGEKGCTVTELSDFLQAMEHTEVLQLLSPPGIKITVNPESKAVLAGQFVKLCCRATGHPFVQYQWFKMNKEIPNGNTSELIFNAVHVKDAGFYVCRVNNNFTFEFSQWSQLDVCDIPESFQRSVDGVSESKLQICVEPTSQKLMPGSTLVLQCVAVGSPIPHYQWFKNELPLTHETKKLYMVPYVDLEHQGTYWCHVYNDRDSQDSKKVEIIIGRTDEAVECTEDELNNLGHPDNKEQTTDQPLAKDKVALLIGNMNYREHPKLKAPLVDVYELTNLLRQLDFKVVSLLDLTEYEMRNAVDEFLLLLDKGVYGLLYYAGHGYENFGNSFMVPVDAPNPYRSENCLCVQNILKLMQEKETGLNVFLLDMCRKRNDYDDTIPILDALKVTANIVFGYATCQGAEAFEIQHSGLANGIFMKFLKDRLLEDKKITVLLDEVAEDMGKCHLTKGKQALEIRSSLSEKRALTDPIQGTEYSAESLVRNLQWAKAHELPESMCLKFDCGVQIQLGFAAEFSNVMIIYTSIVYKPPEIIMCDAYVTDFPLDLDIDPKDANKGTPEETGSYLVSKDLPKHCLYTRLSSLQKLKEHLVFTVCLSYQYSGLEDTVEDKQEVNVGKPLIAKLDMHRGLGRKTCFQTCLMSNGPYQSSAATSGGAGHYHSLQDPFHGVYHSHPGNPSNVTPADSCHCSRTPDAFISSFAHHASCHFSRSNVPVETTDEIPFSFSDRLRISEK
Assay: biochemical
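Also: Cell-free protease assay: enzyme preincubated with compound 30 min at room temperature, then cleavage of fluorogenic Ac-LVSR-AMC substrate (100 µM) tracked by fluorescence (ex 360/em 460 nm).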

SMILES	IC50
CN(C(=O)C1CCS(=O)(=O)C1)[C@@H](c1ccc(NC2Cc3ccc(Cl)c(Cl)c3C2)cn1)C(F)(F)F (single isomer, unassigned) [Example 359]	480 nM
CN(C(=O)CN1CCCS1(=O)=O)[C@@H](c1ccc(NC2Cc3ccc(Cl)c(F)c3C2)cn1)C(F)(F)F (single isomer, unassigned) [Example 361]	7200 nM
CN(C(=O)CN1CCCS1(=O)=O)[C@@H](c1ccc(NC2Cc3ccc(Cl)c(F)c3C2)cn1)C(F)(F)F (single isomer, unassigned) [Example 362]	280 nM
Cc1nnc(N2CC(C(=O)N(C)[C@@H](c3ccc(NC4Cc5ccc(Cl)c(F)c5C4)cn3)C(F)(F)F)C2)o1 (single isomer, unassigned) [Example 364]	120 nM
CN(C(=O)CO)[C@@H](c1ccc(NC2Cc3ccc(Cl)c(F)c3C2)cn1)C(F)(F)F (single isomer, unassigned) [Example 366]	3660 nM
CN(C(=O)CO)[C@@H](c1ccc(NC2Cc3ccc(Cl)c(F)c3C2)cn1)C(F)(F)F (single isomer, unassigned) [Example 367]	310 nM
CC(=O)N1CC(C(=O)N(C)[C@@H](c2ccc(NC3Cc4ccc(Cl)c(Cl)c4C3)cn2)C(F)(F)F)C1 (single isomer, unassigned) [Example 376]	1200 nM
CN(C(=O)C1CN(C(=O)CO)C1)[C@@H](c1ccc(NC2Cc3ccc(Cl)c(Cl)c3C2)cn1)C(F)(F)F (single isomer, unassigned) [Example 379]	46 nM
CN(C(=O)CNS(C)(=O)=O)[C@@H](c1ccc(NC2Cc3ccc(Cl)c(Cl)c3C2)cn1)C(F)(F)F (single isomer, unassigned) [Example 380]	1870 nM
CN(C(=O)CNS(C)(=O)=O)[C@@H](c1ccc(NC2Cc3ccc(Cl)c(Cl)c3C2)cn1)C(F)(F)F (single isomer, unassigned) [Example 381]	77 nM
CN(C(=O)C1CN(C(=O)C2CCO2)C1)[C@@H](c1ccc(NC2Cc3ccc(Cl)c(F)c3C2)cn1)C(F)(F)F (single isomer, unassigned) [Example 385]	130 nM
CN(C(=O)C1CN(C(=O)C2CCO2)C1)[C@@H](c1ccc(NC2Cc3ccc(Cl)c(F)c3C2)cn1)C(F)(F)F (single isomer, unassigned) [Example 386]	2670 nM
CN(C(=O)[C@H]1CCC(=O)NC1)[C@@H](c1ccc(NC2Cc3ccc(Cl)c(F)c3C2)nc1)C(F)(F)F (single isomer, unassigned) [Example 388]	490 nM
CN(C(=O)[C@H]1CCC(=O)NC1)[C@@H](c1ccc(NC2Cc3ccc(Cl)c(F)c3C2)nc1)C(F)(F)F (single isomer, unassigned) [Example 389]	40 nM
CC(=O)N1CCC[C@@H]1C(=O)N(C)[C@@H](c1ccc(N[C@H]2Cc3ccccc3C2(C)C)cn1)C(F)(F)F [Example 171, (R)-1-Acetyl-N—((S)-1-(5-(((S)-1,1-dimethyl-2,3-dihydro-1H-inden-2-yl)amino)pyridin-2-yl)-2,2,2-trifluoroethyl)-N-methylpyrrolidine-2-carboxamide]	210 nM
CN(C(=O)C1CC2(CNC2)C1)[C@@H](c1ccc(N[C@H]2Cc3ccccc3C2(C)C)cn1)C(F)(F)F [Example 173, N—((S)-1-(5-(((S)-1,1-Dimethyl-2,3-dihydro-1H-inden-2-yl)amino)pyridin-2-yl)-2,2,2-trifluoroethyl)-N-methyl-2-azaspiro[3.3]heptane-6-carboxamide]	130 nM
CN(C(=O)[C@@H]1CC[C@H](NC(=O)C(F)(F)F)C1)[C@@H](c1ccc(N[C@H]2Cc3ccccc3C2(C)C)cn1)C(F)(F)F [Example 184, (1R,3S)—N—((S)-1-(5-(((S)-1,1-Dimethyl-2,3-dihydro-1H-inden-2-yl)amino)pyridin-2-yl)-2,2,2-trifluoroethyl)-N-methyl-3-(2,2,2-trifluoroacetamido)cyclopentane-1-carboxamide]	150 nM
CNC(=O)C12CC(C(=O)N(C)[C@@H](c3ccc(N[C@@H]4Cc5ccccc5C4(C)C)cn3)C(F)(F)F)(C1)C2 [Example 203, N^1—((S)-1-(5-(((R)-1,1-Dimethyl-2,3-dihydro-1H-inden-2-yl)amino)pyridin-2-yl)-2,2,2-trifluoroethyl)-N^1,N^3-dimethylbicyclo[1.1.1]pentane-1,3-dicarboxamide]	120 nM
CN(C(=O)C1(NS(C)(=O)=O)CC1)[C@@H](c1ccc(NC2Cc3ccc(Cl)c(F)c3C2)cn1)C(F)(F)F (stereo partly drawn) [Example 290, N-((1S)-1-(5-((5-Chloro-4-fluoro-2,3-dihydro-1H-inden-2-yl)amino)pyridin-2-yl)-2,2,2-trifluoroethyl)-N-methyl-1-(methylsulfonamido)-cyclopropane-1-carboxamide]	120 nM
CN(C(=O)C1CCS(=O)(=O)CC1)[C@@H](c1ccc(NC2Cc3cc(Cl)c(OC(F)F)cc3C2)cn1)C(F)(F)F (stereo partly drawn) [Example 291, N-((1S)-1-(5-((5-Chloro-6-(difluoromethoxy)-2,3-dihydro-1H-inden-2-yl)amino)pyridin-2-yl)-2,2,2-trifluoroethyl)-N-methyltetrahydro-2H-thiopyran-4-carboxamide 1,1-dioxide]	340 nM
CN(C(=O)C1CNC(=O)O1)[C@@H](c1ccc(N[C@H]2Cc3ccc(Cl)cc3C2)cn1)C(F)(F)F (stereo partly drawn) [Example 303, N—((S)-1-(5-(((S)-5-Chloro-2,3-dihydro-1H-inden-2-yl)amino)pyridin-2-yl)-2,2,2-trifluoroethyl)-N-methyl-2-oxooxazolidine-5-carboxamide]	190 nM
CN(C(=O)C1CCS(=O)(=O)CC1)[C@@H](c1ccc(NC2Cc3cc(F)c(Br)cc3C2)cn1)C(F)(F)F (stereo partly drawn) [Example 310, N-((1S)-1-(5-((5-Bromo-6-fluoro-2,3-dihydro-1H-inden-2-yl)amino)pyridin-2-yl)-2,2,2-trifluoroethyl)-N-methyltetrahydro-2H-thiopyran-4-carboxamide 1,1-dioxide]	430 nM

Further molecules by falling IC50, results first:

IC50	SMILES
3640 nM	Cc1nnc(N2CC(C(=O)N(C)[C@@H](c3ccc(NC4Cc5ccc(Cl)c(F)c5C4)cn3)C(F)(F)F)C2)o1 (single isomer, unassigned) [Example 365]
1600 nM	CN(C(=O)[C@H]1C[C@@H](O)C1)[C@@H](c1ccc(NC2Cc3ccc(Cl)c(F)c3C2)cn1)C(F)(F)F (single isomer, unassigned) [Example 383]
1370 nM	CN(C(=O)C1CN(C(=O)C2COC2)C1)[C@@H](c1ccc(NC2Cc3ccc(Cl)c(F)c3C2)cn1)C(F)(F)F (single isomer, unassigned) [Example 370]
1320 nM	CN(C(=O)[C@H]1C[C@H](O)C1)[C@@H](c1ccc(NC2Cc3ccc(Cl)c(F)c3C2)cn1)C(F)(F)F (single isomer, unassigned) [Example 375]
1290 nM	CN(C(=O)C1CN(C(=O)CO)C1)[C@@H](c1ccc(NC2Cc3ccc(Cl)c(Cl)c3C2)cn1)C(F)(F)F (single isomer, unassigned) [Example 378]
840 nM	CNC(=O)C12C3C4C1C1C2C3C41C(=O)N(C)[C@@H](c1ccc(NC2Cc3ccc(Cl)cc3C2)cn1)C(F)(F)F (stereo partly drawn) [Example 292, N^1-((1S)-1-(5-((5-Chloro-2,3-dihydro-1H-inden-2-yl)amino)pyridin-2-yl)-2,2,2-trifluoroethyl)-N^1,N^4-dimethylcubane-1,4-dicarboxamide]
490 nM	Cc1c(Cl)ccc2c1CC(Nc1ccc([C@H](N(C)C(=O)C3CCS(=O)(=O)CC3)C(F)(F)F)nc1)C2 (single isomer, unassigned) [Example 373]
460 nM	CN(C(=O)C1CCS(=O)(=O)CC1)[C@@H](c1ccc(NC2Cc3c(F)ccc(F)c3C2)cn1)C(F)(F)F [Example 273, (S)—N-(1-(5-((4,7-Difluoro-2,3-dihydro-1H-inden-2-yl)amino)pyridin-2-yl)-2,2,2-trifluoroethyl)-N-methyltetrahydro-2H-thiopyran-4-carboxamide 1,1-dioxide]
310 nM	CN(C(=O)C1CN(C(=O)C2CCO2)C1)[C@@H](c1ccc(NC2Cc3ccc(Cl)c(F)c3C2)cn1)C(F)(F)F (single isomer, unassigned) [Example 387]
220 nM	CC(=O)N[C@H]1CC[C@@H](C(=O)N(C)[C@@H](c2ccc(N[C@@H]3Cc4ccccc4C3(C)C)cn2)C(F)(F)F)C1 [Example 204, (1R,3S)-3-Acetamido-N—((S)-1-(5-(((R)-1,1-dimethyl-2,3-dihydro-1H-inden-2-yl)amino)pyridin-2-yl)-2,2,2-trifluoroethyl)-N-methylcyclopentane-1-carboxamide]
110 nM	CN(C(=O)C1CCS(=O)(=O)CC1)[C@@H](c1ccc(NC2Cc3cccc(Br)c3C2)cn1)C(F)(F)F (stereo partly drawn) [Example 237, N-((1S)-1-(5-((4-Bromo-2,3-dihydro-1H-inden-2-yl)amino)pyridin-2-yl)-2,2,2-trifluoroethyl)-N-methyltetrahydro-2H-thiopyran-4-carboxamide 1,1-dioxide]
95 nM	CN(C(=O)[C@H]1C[C@@H](O)C1)[C@@H](c1ccc(NC2Cc3ccc(Cl)c(F)c3C2)cn1)C(F)(F)F (single isomer, unassigned) [Example 382]
